Tests used:
Format in all cases: cell-based
[1] = test system: IL-6 (THP-1 cells); assay: Inhibition of IL-6 in LPS-stimulated THP-1 human monocyte cells (HTRF); conditions: for EC50: inhibition of IL-6 in LPS-stimulated THP-1 cells, HTRF, 10-point dose-response starting from 10 μM; for inhibition at 10 µM: IL-6 assay in LPS-stimulated THP-1 cells, given only where EC50 >10 μM, meaning not given (top concentration 10 μM), read-out: percentage given in parentheses after EC50 >10
Summary of the method: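 Readout is the 665/620 nm HTRF ratio for secreted IL-6, normalized to DMSO wells, with EC50 from a variable-slope four-parameter fit, or % inhibition at 10 μM when above 10 μM. Cells (1% FBS, 24 h beforehand) got compound for 2 h, then LPS 500 ng/mL for 22 h at 37° C; top dose 10 μM, 0.1% DMSO.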

[2] = test system: primary human fibroblasts derived from IPF patients (LL29 cells) treated with TGF-β1; α-smooth muscle actin (αSMA); assay: Inhibition of the fibrotic process: αSMA staining in TGF-β1 treated primary human fibroblasts from IPF patients (LL29 cells); conditions: Fibroblast, 96 h, TGF-β1 20 ng/mL, 4 days; for EC50: % cells positive for αSMA; for inhibition at 10 µM: αSMA, read-out: percent inhibition at 10 μM (given for EC50 of >10 μM)
Summary of the method: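 Potency reflects suppression of TGF-β1-driven αSMA expression in IPF patient fibroblasts over 4 days. Values are EC50s from normalized αSMA-positive cell counts, with % inhibition at 10 μM when EC50 exceeded 10 μM.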

[3] = test system: SW480 colon cancer cells; assay: Cell viability assay (CellTiter-Blue) in SW480 colon cancer cells; conditions: Homo sapiens, 96 h, four days; for inhibition at 10 µM: read-out: percent inhibition at 10 μM (given for EC50 of >10 μM); for EC50: CellTiter-Blue
Summary of the method: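 Four-day viability readout in SW480 cells: compound at 0.0045–10 μM (1:3 series), DMSO controls in eight replicates, CellTiter-Blue fluorescence after ~3 h. Values are regression-derived EC50s, or percent inhibition at 10 μM when EC50 exceeds 10 μM.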

CC(C)(C)C(=O)Nc1cncc(-c2cc3c(-c4cc5c(-c6ccncc6)cccc5[nH]4)n[nH]c3cn2)c1 [Compound 120, N-(5-(3-(4-(Pyridin-4-yl)-1H-indol-2-yl)-1H-pyrazolo[3,4-c]pyridin-5-yl)pyridin-3-yl)pivalamide]
EC50 [1]: 2500 nM | EC50 [2]: 1030 nM | inhibition at 10 µM [3]: 32.2% | EC50 [3]: > 10000 nM

O=C(Nc1cncc(-c2cc3c(-c4cc5c(-c6cccc(F)c6)cccc5[nH]4)n[nH]c3cn2)c1)C1CCC1 [Compound 21, N-(5-(3-(4-(3-Fluorophenyl)-1H-indol-2-yl)-1H-pyrazolo[3,4-c]pyridin-5-yl)pyridin-3-yl)cyclobutanecarboxamide]
inhibition at 10 µM [1]: 0% | EC50 [1]: > 10000 nM | EC50 [2]: 1700 nM | inhibition at 10 µM [3]: 11.5% | EC50 [3]: > 10000 nM

O=C(Nc1cncc(-c2cc3c(-c4cc5c(-c6ccc(F)cc6)cccc5[nH]4)n[nH]c3cn2)c1)C1CCCCC1 [Compound 51, N-(5-(3-(4-(4-Fluorophenyl)-1H-indol-2-yl)-1H-pyrazolo[3,4-c]pyridin-5-yl)pyridin-3-yl)cyclohexanecarboxamide]
inhibition at 10 µM [1]: 6.7% | EC50 [1]: > 10000 nM | EC50 [2]: 809 nM | EC50 [3]: 9620 nM

Nc1cncc(-c2cc3c(-c4cc5c(-c6ccccc6F)cccc5[nH]4)n[nH]c3cn2)c1 [Compound 59, 5-(3-(4-(2-Fluorophenyl)-1H-indol-2-yl)-1H-pyrazolo[3,4-c]pyridin-5-yl) pyridin-3-amine]
EC50 [1]: 968 nM | EC50 [2]: 144 nM | EC50 [3]: 1300 nM

FC1(F)CCN(Cc2cncc(-c3cc4c(-c5cc6c(N7CCCCC7)cccc6[nH]5)n[nH]c4cn3)c2)C1 [Compound 194, 5-(5-((3,3-Difluoropyrrolidin-1-yl)methyl)pyridin-3-yl)-3-(4-(piperidin-1-yl)-1H-indol-2-yl)-1H-pyrazolo[3,4-c]pyridine]
inhibition at 10 µM [1]: 0% | EC50 [1]: > 10000 nM | EC50 [2]: 694 nM | EC50 [3]: 6210 nM

CC(C)CC(=O)Nc1cncc(-c2cc3c(-c4cc5c(-c6ccc(F)cc6)cccc5[nH]4)n[nH]c3cn2)c1 [Compound 30, N-(5-(3-(4-(4-Fluorophenyl)-1H-indol-2-yl)-1H-pyrazolo[3,4-c]pyridin-5-yl)pyridin-3-yl)-3-methylbutanamide]
EC50 [1]: 5130 nM | EC50 [2]: 2280 nM | inhibition at 10 µM [3]: 28.3% | EC50 [3]: > 10000 nM

Cn1cc(-c2cc3c(-c4cc5ncccc5[nH]4)n[nH]c3cn2)cn1 [Compound 1022, 5-(1-Methyl-1H-pyrazol-4-yl)-3-(1H-pyrrolo[3,2-b]pyridin-2-yl)-1H-pyrazolo[3,4-c]pyridine]
EC50 [1]: 344 nM | EC50 [2]: > 10000 nM | inhibition at 10 µM [2]: 44.5% | EC50 [3]: 2560 nM

Nc1cncc(-c2cc3c(-c4cc5ncccc5[nH]4)n[nH]c3cn2)c1 [Compound 507, 5-(3-(1H-Pyrrolo[3,2-b]pyridin-2-yl)-1H-pyrazolo[3,4-c]pyridin-5-yl) pyridin-3-amine]
EC50 [1]: 404 nM | EC50 [2]: > 10000 nM | inhibition at 10 µM [2]: 0% | EC50 [3]: 1230 nM

c1cc(-c2ccncc2)c2cc(-c3n[nH]c4cnc(-c5cncnc5)cc34)[nH]c2c1 [Compound 139, 3-(4-(Pyridin-4-yl)-1H-indol-2-yl)-5-(pyrimidin-5-yl)-1H-pyrazolo[3,4-c]pyridine]
inhibition at 10 µM [1]: 3% | EC50 [1]: > 10000 nM | EC50 [2]: 238 nM | inhibition at 10 µM [3]: 15.5% | EC50 [3]: > 10000 nM

CC(C)C(=O)Nc1cncc(-c2cc3c(-c4cc5c(N6CCN(C)CC6)cccc5[nH]4)n[nH]c3cn2)c1 [Compound 233]
EC50 [1]: 753 nM | EC50 [2]: > 10000 nM | inhibition at 10 µM [2]: 74.5% | EC50 [3]: 1950 nM

c1cnc2cc(-c3n[nH]c4cnc(-c5cncc(CNCC6CCCC6)c5)cc34)[nH]c2c1 [Compound 529, 1-(5-(3-(1H-Pyrrolo[3,2-b]pyridin-2-yl)-1H-pyrazolo[3,4-c]pyridin-5-yl)pyridin-3-yl)-N-(cyclopentylmethyl)methanamine]
EC50 [1]: 999 nM | EC50 [2]: > 10000 nM | inhibition at 10 µM [2]: 0% | inhibition at 10 µM [3]: 0% | EC50 [3]: > 10000 nM

CCC(=O)Nc1cncc(-c2cc3c(-c4cc5c(-c6cccnc6)cccc5[nH]4)n[nH]c3cn2)c1 [Compound 85, N-(5-(3-(4-(Pyridin-3-yl)-1H-indol-2-yl)-1H-pyrazolo[3,4-c]pyridin-5-yl)pyridin-3-yl)propionamide]
EC50 [1]: 74 nM | EC50 [2]: 553 nM | EC50 [3]: 1160 nM

CC(C)(C)CC(=O)Nc1cncc(-c2cc3c(-c4cc5ccccc5[nH]4)n[nH]c3cn2)c1 [Compound 268, N-(5-(3-(1H-Indol-2-yl)-1H-pyrazolo[3,4-c]pyridin-5-yl)pyridin-3-yl)-3,3-dimethylbutanamide]
inhibition at 10 µM [1]: 25.1% | EC50 [1]: > 10000 nM | EC50 [2]: 9980 nM | inhibition at 10 µM [3]: 4.5% | EC50 [3]: > 10000 nM

Cc1ccncc1-c1cc2c(-c3cc4c(-c5cccc(F)c5)cccc4[nH]3)n[nH]c2cn1 [Compound 5, 3-(4-(3-Fluorophenyl)-1H-indol-2-yl)-5-(4-methylpyridin-3-yl)-1H-pyrazolo [3,4-c]pyridine]
inhibition at 10 µM [1]: 30.7% | EC50 [1]: > 10000 nM | EC50 [2]: 605 nM | EC50 [3]: 6840 nM

O=C(Nc1cncc(-c2cc3c(-c4cc5ccccc5[nH]4)n[nH]c3cn2)c1)C1CCCCC1 [Compound 275, N-(5-(3-(1H-Indol-2-yl)-1H-pyrazolo[3,4-c]pyridin-5-yl)pyridin-3-yl) cyclohexanecarboxamide]
EC50 [1]: 92 nM | EC50 [2]: 3270 nM | inhibition at 10 µM [3]: 35.4% | EC50 [3]: > 10000 nM

CC(C)(C)CC(=O)Nc1cncc(-c2cc3c(-c4cc5c(-c6ccncc6)cccc5[nH]4)n[nH]c3cn2)c1 [Compound 128, 3,3-Dimethyl-N-(5-(3-(4-(pyridin-4-yl)-1H-indol-2-yl)-1H-pyrazolo[3,4-c]pyridin-5-yl)pyridin-3-yl)butanamide]
inhibition at 10 µM [1]: 0% | EC50 [1]: > 10000 nM | EC50 [2]: > 10000 nM | inhibition at 10 µM [2]: 23.7% | inhibition at 10 µM [3]: 14% | EC50 [3]: > 10000 nM

CN(C)CCNc1cc(F)cc(-c2cccc3[nH]c(-c4n[nH]c5cnc(-c6ccccn6)cc45)cc23)c1 [Compound 476, N^1-(3-Fluoro-5-(2-(5-(pyridin-2-yl)-1H-pyrazolo[3,4-c]pyridin-3-yl)-1H-indol-4-yl)phenyl)-N^2,N^2-dimethylethane-1,2-diamine]
EC50 [1]: 1560 nM | EC50 [2]: 582 nM | EC50 [3]: 2860 nM

O=C(Nc1cncc(-c2cc3c(-c4cc5c(N6CCCCC6)cccc5[nH]4)n[nH]c3cn2)c1)C1CC1 [Compound 188, N-(5-(3-(4-(Piperidin-1-yl)-1H-indol-2-yl)-1H-pyrazolo[3,4-c]pyridin-5-yl)pyridin-3-yl)cyclopropanecarboxamide]
EC50 [1]: 4960 nM | EC50 [2]: 1370 nM | inhibition at 10 µM [3]: 25.3% | EC50 [3]: > 10000 nM

CN(C)CCNc1cc(F)cc(-c2cccc3[nH]c(-c4n[nH]c5cnc(-c6cncc(CN(C)C)c6)cc45)cc23)c1 [Compound 461, N^1-(3-(2-(5-(5-((Dimethylamino)methyl)pyridin-3-yl)-1H-pyrazolo[3,4-c]pyridin-3-yl)-1H-indol-4-yl)-5-fluorophenyl)-N^2,N^2-dimethylethane-1,2-diamine]
EC50 [1]: 657 nM | EC50 [2]: 1180 nM | EC50 [3]: 964 nM

Fc1ccccc1-c1cccc2[nH]c(-c3n[nH]c4cnc(-c5cncc(CN6CCCCC6)c5)cc34)cc12 [Compound 71, 3-(4-(2-Fluorophenyl)-1H-indol-2-yl)-5-(5-(piperidin-1-ylmethyl)pyridin-3-yl)-1H-pyrazolo[3,4-c]pyridine]
EC50 [1]: 7660 nM | EC50 [2]: 157 nM | EC50 [3]: 1660 nM

CN(C)CCNc1cc(F)cc(-c2cccc3[nH]c(-c4n[nH]c5cnc(-c6cncc(O)c6)cc45)cc23)c1 [Compound 817, 5-(3-(4-(3-((2-(Dimethylamino)ethyl)amino)-5-fluorophenyl)-1H-indol-2-yl)-1H-pyrazolo[3,4-c]pyridin-5-yl)pyridin-3-ol]
EC50 [1]: 232 nM | EC50 [2]: 519 nM | EC50 [3]: 1070 nM

CN1CCN(c2cccc3[nH]c(-c4n[nH]c5cnc(-c6cncc(NC(=O)C7CCC7)c6)cc45)cc23)CC1 [Compound 245]
EC50 [1]: 967 nM | EC50 [2]: 4610 nM | inhibition at 10 µM [3]: 64.6% | EC50 [3]: > 10000 nM

Cc1ccncc1-c1cc2c(-c3cc4c(-c5cc(F)cc(CNS(C)(=O)=O)c5)cccc4[nH]3)n[nH]c2cn1 [Compound 481, N-(3-Fluoro-5-(2-(5-(4-methylpyridin-3-yl)-1H-pyrazolo[3,4-c]pyridin-3-yl)-1H-indol-4-yl)benzyl)methanesulfonamide]
EC50 [1]: 1180 nM | EC50 [2]: 712 nM | EC50 [3]: 1930 nM
